The term Ki denotes the dissociation constant of the complex between target and ligand, obtained from inhibition or displacement.

For one assay, the target named is T1, mouse EP3α (Mus musculus, UniProt P30557).
T1 construct: expressed in transfected cells; host or cells: CHO cells
T1 sequence (P30557 1-365): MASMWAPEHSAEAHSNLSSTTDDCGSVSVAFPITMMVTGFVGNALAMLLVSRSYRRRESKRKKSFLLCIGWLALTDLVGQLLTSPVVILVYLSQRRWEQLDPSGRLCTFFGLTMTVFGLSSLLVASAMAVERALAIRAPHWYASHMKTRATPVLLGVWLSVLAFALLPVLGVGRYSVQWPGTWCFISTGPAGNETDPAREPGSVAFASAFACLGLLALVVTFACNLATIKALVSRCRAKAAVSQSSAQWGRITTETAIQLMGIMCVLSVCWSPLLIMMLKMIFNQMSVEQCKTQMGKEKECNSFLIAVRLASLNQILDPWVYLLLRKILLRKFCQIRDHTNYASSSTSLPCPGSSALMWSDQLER
The assay can be described thus: Binding assay using expression cell of the prostanoid receptor subtype (EP3α), competition of specific 3H-PGE2 binding. The conditions noted are these: membrane fraction of EP3α expressing CHO cells; 2.5 nM 3H-PGE2; pH 6.0; 1 hour at room temperature; read-out: Dissociation constant for EP3α Ki. The method, then: (§1) (I) Binding assay using expression cell of the prostanoid receptor subtype
(§2) The preparation of membrane fraction was carried out according to the method of Sugimoto et al (J. Biol. Chem. 267, 6463-6466 (1992)) using the prostanoid receptor subtypes (mouse EP3α, EP4) expressing CHO cells.
(§3) The standard assay mixture containing membrane fraction (0.5 mg/ml) and ^3 H-PGE2 in a final volume of 200 μl was incubated for 1 hour at room temperature. The reaction was terminated by the addition of 3 ml of ice-cold buffer. The mixture was rapidly filtered through a GF/B glass filter. The radioactivity associated with the filter was measured by liquid scintillation counting.
(§4) Kd and Bmax value were determined from Scatchard plots (Ann. N. Y. Sci., 51, 660 (1949)). Non-specific binding was calculated as the bound in the presence of an excess (2.5 μM) of unlabeled PGE2.
(§5) In the experiment for competition of specific ^3 H-PGE2 binding by the compounds of the present invention, 2.5 nM of ^3 H-PGE2 and various concentration of the compounds of the present invention were added. The following buffer was used in all reactions. Buffer: 10 mM potassium phosphate (pH 6.0), 1 mM EDTA, 10 mM MgCl2, 0.1M NaCl. The dissociation constant (Ki) of each compound was calculated by the following equation.

The target in another assay is T2, mouse EP4 (Mus musculus, UniProt P32240).
T2 construct: expressed in transfected cells; host or cells: CHO cells
The assay can be described thus: Binding assay using expression cell of the prostanoid receptor subtype (EP4), competition of specific 3H-PGE2 binding. To be noted: membrane fraction of EP4 expressing CHO cells; 2.5 nM 3H-PGE2; pH 6.0; 1 hour at room temperature; read-out: Dissociation constant for EP4 Ki. The method, then:
as §1, §2, §3, §4, §5

T2 sequence (P32240 whole entry): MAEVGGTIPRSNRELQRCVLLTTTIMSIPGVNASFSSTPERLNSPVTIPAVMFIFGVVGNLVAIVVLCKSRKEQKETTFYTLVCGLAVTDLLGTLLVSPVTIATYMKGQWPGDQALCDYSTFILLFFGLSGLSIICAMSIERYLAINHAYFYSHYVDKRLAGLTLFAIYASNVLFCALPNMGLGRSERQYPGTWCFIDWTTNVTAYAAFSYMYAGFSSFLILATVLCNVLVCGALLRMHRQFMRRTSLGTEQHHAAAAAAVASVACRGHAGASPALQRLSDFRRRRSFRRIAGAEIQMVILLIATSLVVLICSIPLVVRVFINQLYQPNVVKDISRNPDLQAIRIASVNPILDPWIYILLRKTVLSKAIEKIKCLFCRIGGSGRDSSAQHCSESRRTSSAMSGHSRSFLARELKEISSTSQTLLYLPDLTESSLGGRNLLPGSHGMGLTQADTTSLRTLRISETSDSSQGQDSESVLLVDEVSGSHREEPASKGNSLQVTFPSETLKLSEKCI

Regarding `CCCCC(C)CC(O)/C=C/C1C(O)CC(=O)C1SCCCSCC(=O)O` (stereo not drawn) [Example 2(a), 11α,15α-dihydroxy-9-oxo-17β,20-dimethyl-3,7-dithiaprost-13E-enoic acid], the Ki at mouse EP3α is 10 nM; at mouse EP4, 0.8 nM.

As to `CCCC[C@H](C)C[C@H](O)/C=C/[C@H]1[C@H](O)CC(=O)[C@@H]1SCCCSCC(=O)O` [Example 2(b), 11α,15α-dihydroxy-9-oxo-17α,20-dimethyl-3,7-dithiaprost-13E-enoic acid], at mouse EP4, the Ki came to 0.6 nM.

As to `CCCCC(C)(O)C/C=C/C1C(O)CC(=O)C1SCCCSCC(=O)O` (stereo not drawn) [Example 2(c), 11α,16β-dihydroxy-9-oxo-16α-methyl-3,7-dithiaprost-13E-enoic acid], at mouse EP4, the inhibition constant Ki worked out at 5.6 nM. Same read-out and setting: as for `CCCCC[C@H](O)CC[C@@H]1C(SCCCSCC(=O)O)C(=O)C[C@H]1O` (stereo partly drawn) [Example 2(d), 11α,15α-dihydroxy-9-oxo-3,7-dithiaprostanoic acid], the figure is 1.6 nM; as for `CC/C=C\CC(O)/C=C/C1C(O)CC(=O)C1SCCCSCC(=O)O` (stereo not drawn) [Example 2(e), 11α,15α-dihydroxy-9-oxo-3,7-dithiaprost-13E,17Z-dienoic acid], 0.91 nM.

On to `O=C(O)CSCCCSC1C(=O)CC(O)C1/C=C/C(O)Cc1ccccc1` (stereo not drawn) [Example 2(f), 11α,15α-dihydroxy-9-oxo-16-phenyl-17,18,19,20-tetranor-3,7-dithiaprost-13E-enoic acid], for which the inhibition constant (Ki) on mouse EP3α stood at 130 nM; on mouse EP4 it was 7 nM. `O=C(O)CSCCCSC1C(=O)CC(O)C1/C=C/C(O)CCc1ccccc1` (stereo not drawn) [Example 2(g), 11α,15α-dihydroxy-9-oxo-17-phenyl-18,19,20-trinor-3,7-dithiaprost-13E-enoic acid]: on mouse EP4, the inhibitory constant (Ki) came to 6 nM. For `O=C(O)CSCCCS[C@H]1C(=O)C[C@@H](O)[C@@H]1/C=C/[C@@H](O)C1CCCCC1` [Example 2(h), 11α,15α-dihydroxy-9-oxo-15-cyclohexyl-3,7-dithia-16,17,18,19,20-pentanorprost-13E-enoic acid], the Ki on mouse EP3α amounted to 610 nM; at mouse EP4 it was 22 nM. For `CCCCC[C@](C)(O)/C=C/[C@H]1[C@H](O)CC(=O)[C@@H]1SCCCSCC(=O)O` [Example 2(k), 11α,15α-dihydroxy-9-oxo-15β-methyl-3,7-dithiaprost-13E-enoic acid], in that order: 34 nM and 0.7 nM.

For the compound `CCCCC(O)/C=C/C1C(O)CC(=O)C1SCCCSCC(=O)O` (stereo not drawn) [Example 2(m), 11α,15α-dihydroxy-9-oxo-3,7-dithia-20-norprost-13E-enoic acid], the inhibition constant Ki at mouse EP3α turned out to be 23 nM; at mouse EP4, 1.4 nM. On to `CCCC[C@H](C)[C@H](O)/C=C/[C@@H]1C(SCCCSCC(=O)O)C(=O)C[C@H]1O` (stereo partly drawn) [Example 2(o), 11α,15α-dihydroxy-9-oxo-16β-methyl-3,7-dithiaprost-13E-enoic acid], for which the Ki at mouse EP3α was 25 nM; on mouse EP4, 0.2 nM. `O=C(O)CSCCCSC1C(=O)CC(O)C1/C=C/C(O)CCCC1CC1` (stereo not drawn) [Example 2(q), 11α,15α-dihydroxy-9-oxo-19,20-methano-3,7-dithiaprost-13E-enoicacid]: the Ki at mouse EP4 stood at 0.4 nM. The same measure, in the same setting: with `O=C(O)CSCCCSC1C(=O)CC(O)C1/C=C/C(O)CC1CCCC1` (stereo not drawn) [Example 2(t), 11α,15α-dihydroxy-9-oxo-16-cyclopentyl-3,7-dithia-17,18,19,20-tetranorprost-13E-enoic acid] the figure was 4.2 nM. As for `CCCCCC(O)/C=C/C1C(O)CC(=O)C1SCCCSCC(=O)O` (stereo not drawn) [Example 2, 11α,15α-dihydroxy-9-oxo-3,7-dithiaprost-13E-enoic acid], the values for the Ki on mouse EP3α and at mouse EP4 were 1500 nM and 0.7 nM, respectively.

Values taken from patent US5892099A, “3,7-dithiaprostanoic acid derivative” (Ono Pharmaceutical Co., Ltd., priority 1997, dated 1999).
